Assays:
Assay in all cases: Seed germination and seedling shoot/root growth test in petridishes
Type in all cases: in vivo
[1] = tested on: Trigonella foenum-graecum; conditions: for Percent (%) germination of seeds in relation to control on 9th day after sowing / Percent (%) root growth of seedlings in relation to control on 9th day after sowing / Percent (%) shoot growth of seedlings in relation to control on 9th day after sowing: Trigonella foenum graecum, control = 100%
Procedure: (§1) As noted above the activity of phyllocladane diterpenoids used in the practice of this invention was observed when these compounds were tested for their effects on seed germination, root and shoot growth of certain plant species and their antagonistic effect on plant growth retardants by the method described by Bagchi G. D. et al Phytochemistry, 45(6)1131-1133, 1997.
(§2) Plant growth promoting activity of calliterpenone, calliterpenone monoacetate, and calliterpenone di-acetate was examined at 0.1, 0.01 and 0.001 μM concentrations. The tests were conducted against seeds of two monocotyledonous (Hordeum vulgare and Triticum aestivum) and two dicotyledonous plants (Vigna radiata and Trigonella foenum-graecum). Control seeds were germinated in distilled water and all the observations were compared with […]. The root and shoot growth of all the plant species were affected by the phyllocladane diterpenoids, although the extent of effect varied considerably in the plant species with the chemicals and their concentrations. […] Details of the procedure adopted and results obtained are discussed in the various examples.
(§3) 100 ml stalk solutions of 0.1 μM concentration were prepared by dissolving required amounts of various test compounds (depending upon their molecular weights) in minimum amount of ethanol or acetone and adding distilled water. From this stalk solution, 0.01 μM and 0.001 μM concentrations were prepared. Calliterpenone and calliterpenone di acetate was dissolved in 2.0 ml absolute ethanol (Merc), while; calliterpenone monoacetate, isopropylideno calliterpenone and trihydroxy calliterpenone were dissolved in 2.0 ml spectral grade acetone (Ranbaxy). The respective control test solutions of distilled water of each concentration also contained equal amount of absolute ethanol or acetone. For an assay, 10 seeds were placed on Whatman filter paper (moistened with 5.0 ml of test solution in a 9.0 cm diameter petridish (in triplicate). The pteridishes were incubated for 9 days in a germinator, maintained at 25.0±1.0° C. with 90% humidity and 4 hr light/day. At the end of incubation, observations were recorded on the seedlings in terms of germination, shoot and root growth. The data on the length of shoot and root of seedlings and number of seeds germinated in different concentrations of compounds were compared with the control, which was taken as 100%. The data thus obtained were presented in Table-1.
(§4) Root growth of seedlings was measured in the similar way as shoot growth from the experiment as described in Example 1.
(§5) Effect of test compounds on germination was observed from the same experiment as described in Example 1.

Triticum aestivum = conditions: control = 100%
Procedure: as §1, §2, §3, §4, §5

Hordeum vulgare = conditions: control = 100%
Procedure: as §1, §2, §3, §4, §5

Vigna radiata = conditions: Vigna radiata, control = 100%
Procedure: as §1, §2, §3, §4, §5

SMILES	Percent (%) germination of seeds in relation to control on 9th day after sowing ([1]; 0.001 μM) [%]	Percent (%) root growth of seedlings in relation to control on 9th day after sowing ([1]; 0.001 μM) [%]	Percent (%) shoot growth of seedlings in relation to control on 9th day after sowing ([1]; 0.001 μM) [%]	Percent (%) germination of seeds in relation to control on 9th day after sowing ([1]; 0.01 μM) [%]	Percent (%) root growth of seedlings in relation to control on 9th day after sowing ([1]; 0.01 μM) [%]	Percent (%) shoot growth of seedlings in relation to control on 9th day after sowing ([1]; 0.01 μM) [%]	Percent (%) germination of seeds in relation to control on 9th day after sowing ([1]; 0.1 μM) [%]	Percent (%) root growth of seedlings in relation to control on 9th day after sowing ([1]; 0.1 μM) [%]	Percent (%) shoot growth of seedlings in relation to control on 9th day after sowing ([1]; 0.1 μM) [%]	Percent (%) germination of seeds in relation to control on 9th day after sowing (Triticum aestivum; 0.001 μM) [%]	Percent (%) root growth of seedlings in relation to control on 9th day after sowing (Triticum aestivum; 0.001 μM) [%]	Percent (%) shoot growth of seedlings in relation to control on 9th day after sowing (Triticum aestivum; 0.001 μM) [%]	Percent (%) germination of seeds in relation to control on 9th day after sowing (Triticum aestivum; 0.01 μM) [%]	Percent (%) root growth of seedlings in relation to control on 9th day after sowing (Triticum aestivum; 0.01 μM) [%]	Percent (%) shoot growth of seedlings in relation to control on 9th day after sowing (Triticum aestivum; 0.01 μM) [%]	Percent (%) germination of seeds in relation to control on 9th day after sowing (Triticum aestivum; 0.1 μM) [%]	Percent (%) root growth of seedlings in relation to control on 9th day after sowing (Triticum aestivum; 0.1 μM) [%]	Percent (%) shoot growth of seedlings in relation to control on 9th day after sowing (Triticum aestivum; 0.1 μM) [%]	Percent (%) germination of seeds in relation to control on 9th day after sowing (Hordeum vulgare; 0.001 μM) [%]	Percent (%) root growth of seedlings in relation to control on 9th day after sowing (Hordeum vulgare; 0.001 μM) [%]	other results
CC(=O)OCC1(OC(C)=O)CC23CCC4C(C)(C)C(=O)CCC4(C)C2CCC1C3 (stereo not shown) [Calliterpenone Diacetate, calliterpenone diacetate]	100	73	81	100	113	121	75	95	94	100	125	109	100	114	106	90	103	103	100	119	Percent (%) root growth of seedlings in relation to control on 9th day after sowing ([1]; 0.001 μM, listed as Calliterpenone diacetate): 113%; Percent (%) shoot growth of seedlings in relation to control on 9th day after sowing (Hordeum vulgare; 0.001 μM): 108%; Percent (%) germination of seeds in relation to control on 9th day after sowing (Hordeum vulgare; 0.01 μM): 100%; Percent (%) root growth of seedlings in relation to control on 9th day after sowing (Hordeum vulgare; 0.01 μM): 113%; Percent (%) shoot growth of seedlings in relation to control on 9th day after sowing (Hordeum vulgare; 0.01 μM): 106%; Percent (%) root growth of seedlings in relation to control on 9th day after sowing (Hordeum vulgare; 0.01 μM, listed as Calliterpenone diacetate): 119%; Percent (%) germination of seeds in relation to control on 9th day after sowing (Hordeum vulgare; 0.1 μM): 100%; Percent (%) root growth of seedlings in relation to control on 9th day after sowing (Hordeum vulgare; 0.1 μM): 98%; Percent (%) shoot growth of seedlings in relation to control on 9th day after sowing (Hordeum vulgare; 0.1 μM): 105%; Percent (%) germination of seeds in relation to control on 9th day after sowing (Vigna radiata; 0.001 μM): 200%; Percent (%) root growth of seedlings in relation to control on 9th day after sowing (Vigna radiata; 0.001 μM): 91%; Percent (%) shoot growth of seedlings in relation to control on 9th day after sowing (Vigna radiata; 0.001 μM): 111%; Percent (%) germination of seeds in relation to control on 9th day after sowing (Vigna radiata; 0.01 μM): 100%; Percent (%) root growth of seedlings in relation to control on 9th day after sowing (Vigna radiata; 0.01 μM): 136%; Percent (%) shoot growth of seedlings in relation to control on 9th day after sowing (Vigna radiata; 0.01 μM): 115%; Percent (%) germination of seeds in relation to control on 9th day after sowing (Vigna radiata; 0.1 μM): 100%; Percent (%) root growth of seedlings in relation to control on 9th day after sowing (Vigna radiata; 0.1 μM): 93%; Percent (%) shoot growth of seedlings in relation to control on 9th day after sowing (Vigna radiata; 0.1 μM): 119%
CC1(C)OCC2(CC34CCC5C(C)(C)C(=O)CCC5(C)C3CCC2C4)O1 (stereo not drawn) [Isopropylideno Calliterpenone, 16α, 17-isopropylidino 3-oxo phyllocladane]	100	132	137	113	123	123	100	91	100	100	109	103	100	107	103	100	78	102	100	118	Percent (%) root growth of seedlings in relation to control on 9th day after sowing ([1]; 0.01 μM, listed as Iso-propylideno calliterpenone): 132%; Percent (%) shoot growth of seedlings in relation to control on 9th day after sowing (Hordeum vulgare; 0.001 μM): 106%; Percent (%) germination of seeds in relation to control on 9th day after sowing (Hordeum vulgare; 0.01 μM): 100%; Percent (%) root growth of seedlings in relation to control on 9th day after sowing (Hordeum vulgare; 0.01 μM): 115%; Percent (%) shoot growth of seedlings in relation to control on 9th day after sowing (Hordeum vulgare; 0.01 μM): 107%; Percent (%) germination of seeds in relation to control on 9th day after sowing (Hordeum vulgare; 0.1 μM): 100%; Percent (%) root growth of seedlings in relation to control on 9th day after sowing (Hordeum vulgare; 0.1 μM): 143%; Percent (%) shoot growth of seedlings in relation to control on 9th day after sowing (Hordeum vulgare; 0.1 μM): 108%; Percent (%) germination of seeds in relation to control on 9th day after sowing (Vigna radiata; 0.001 μM): 150%; Percent (%) root growth of seedlings in relation to control on 9th day after sowing (Vigna radiata; 0.001 μM): 91%; Percent (%) shoot growth of seedlings in relation to control on 9th day after sowing (Vigna radiata; 0.001 μM): 89%; Percent (%) germination of seeds in relation to control on 9th day after sowing (Vigna radiata; 0.01 μM): 100%; Percent (%) root growth of seedlings in relation to control on 9th day after sowing (Vigna radiata; 0.01 μM): 131%; Percent (%) shoot growth of seedlings in relation to control on 9th day after sowing (Vigna radiata; 0.01 μM): 153%; Percent (%) germination of seeds in relation to control on 9th day after sowing (Vigna radiata; 0.1 μM): 100%; Percent (%) root growth of seedlings in relation to control on 9th day after sowing (Vigna radiata; 0.1 μM): 124%; Percent (%) shoot growth of seedlings in relation to control on 9th day after sowing (Vigna radiata; 0.1 μM): 145%
CC1(C)C(O)CCC2(C)C3CCC4CC3(CCC12)CC4(O)CO (stereo not drawn) [Trihydroxy Phyllocladane, 30β, 16α, 17. trihydroxy phyllocladane]	63	55	53	75	68	72	88	82	84	100	90	108	100	113	112	100	111	116	100	145	Effect on shoots (in words) ([1]; T. foenum-graecum, all dilutions tested): proved toxic; Percent (%) shoot growth of seedlings in relation to control on 9th day after sowing (Hordeum vulgare; 0.001 μM): 102%; Percent (%) germination of seeds in relation to control on 9th day after sowing (Hordeum vulgare; 0.01 μM): 100%; Percent (%) root growth of seedlings in relation to control on 9th day after sowing (Hordeum vulgare; 0.01 μM): 112%; Percent (%) shoot growth of seedlings in relation to control on 9th day after sowing (Hordeum vulgare; 0.01 μM): 108%; Percent (%) germination of seeds in relation to control on 9th day after sowing (Hordeum vulgare; 0.1 μM): 100%; Percent (%) root growth of seedlings in relation to control on 9th day after sowing (Hordeum vulgare; 0.1 μM): 106%; Percent (%) shoot growth of seedlings in relation to control on 9th day after sowing (Hordeum vulgare; 0.1 μM): 109%; Percent (%) germination of seeds in relation to control on 9th day after sowing (Vigna radiata; 0.001 μM): 100%; Percent (%) root growth of seedlings in relation to control on 9th day after sowing (Vigna radiata; 0.001 μM): 100%; Percent (%) shoot growth of seedlings in relation to control on 9th day after sowing (Vigna radiata; 0.001 μM): 136%; Percent (%) germination of seeds in relation to control on 9th day after sowing (Vigna radiata; 0.01 μM): 150%; Percent (%) root growth of seedlings in relation to control on 9th day after sowing (Vigna radiata; 0.01 μM): 102%; Percent (%) shoot growth of seedlings in relation to control on 9th day after sowing (Vigna radiata; 0.01 μM): 145%; Percent (%) germination of seeds in relation to control on 9th day after sowing (Vigna radiata; 0.1 μM): 150%; Percent (%) root growth of seedlings in relation to control on 9th day after sowing (Vigna radiata; 0.1 μM): 93%; Percent (%) shoot growth of seedlings in relation to control on 9th day after sowing (Vigna radiata; 0.1 μM): 132%

— US6673749B1, “Use of phyllocladane diterpenoids for plant growth promotion and alleviation of growth retardant allelochemicals, and method therefor” (Council of Scientific and Industrial Research, priority 2002, dated 2004)
